ChEMBL document CHEMBL1201862, “PubChem BioAssay data set” (2004)
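Tested at 5 concentrations; 48 h exposure; 96-well plates; endpoints linearly interpolated, else capped at highest concentration. Here, GI50 denotes the concentration required for 50% inhibition of growth.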 The source made the active and inactive calls. Cut-off read from the data, not from the text of the source: active = GI50 up to about 1.1 µM and inactive = higher.

Tests used:
Assay in all cases: NCI anticancer screen, dose series, 48 h
MOLT-4 = system: MOLT-4
KM-20L2 = system: KM-20L2
UACC-257 = system: UACC-257
786-0 = system: 786-0
DMS-114 = system: DMS-114
HL-60 = system: HL-60
OVCAR-3 = system: OVCAR-3
SNB-75 = system: SNB-75
KM12 = system: KM12
OVCAR-8 = system: OVCAR-8
SF-539 = system: SF-539
PC-3 = system: PC-3
SR = system: SR
MDA-MB-231 = system: MDA-MB-231
MDA-MB-435 = system: MDA-MB-435
NCI-H226 = system: NCI-H226
BT-549 = system: BT-549
DU-145 = system: DU-145
MDA-N = system: MDA-N
T47D = system: T47D

| Compound | GI50 (MOLT-4) | GI50 (KM-20L2) | GI50 (UACC-257) | GI50 (786-0) | GI50 (DMS-114) | GI50 (HL-60) | GI50 (OVCAR-3) | GI50 (SNB-75) | GI50 (KM12) | GI50 (OVCAR-8) | GI50 (SF-539) | GI50 (PC-3) | GI50 (SR) | GI50 (MDA-MB-231) | GI50 (MDA-MB-435) | GI50 (NCI-H226) | GI50 (BT-549) | GI50 (DU-145) | GI50 (MDA-N) | GI50 (T47D) |
| --- | --- | --- | --- | --- | --- | --- | --- | --- | --- | --- | --- | --- | --- | --- | --- | --- | --- | --- | --- | --- |
| N/N=C1\C(=O)N(c2ccc(Cl)c(Cl)c2)C(=O)C1C(=O)Nc1ccc(Cl)c(Cl)c1 (stereo unspecified) | 42.4 µM (inactive) | 48.4 µM (inactive) | 71 µM (inactive) | 89.5 µM (inactive) | 57.5 µM (inactive) | 74.5 µM (inactive) | 49.9 µM (inactive) | > 100 µM (inactive) | 50.7 µM (inactive) | 42.8 µM (inactive) | 79.6 µM (inactive) | – | – | – | – | – | – | – | – | – |
| COc1ccc(/C=C2/C(=O)N(C(=O)c3ccccc3O)N=C2C)cc1OC | 21.2 µM (inactive) | 24.9 µM (inactive) | 1.42 µM (inactive) | 1.26 µM (inactive) | 0.301 µM (active) | 0.687 µM (active) | 0.374 µM (active) | – | 0.516 µM (active) | 0.568 µM (active) | 0.241 µM (active) | 2.37 µM (inactive) | 0.644 µM (active) | > 100 µM (inactive) | 0.355 µM (active) | 0.637 µM (active) | 0.388 µM (active) | 0.643 µM (active) | 0.489 µM (active) | – |
| COC1=CC(=O)C=C(OC)C1=O [2,6-DIMETHOXYQUINONE] | 1.49 µM (inactive) | 30 µM (inactive) | 10.2 µM (inactive) | – | 5.81 µM (inactive) | 3.94 µM (inactive) | 4.78 µM (inactive) | 27.9 µM (inactive) | 16.4 µM (inactive) | 8.93 µM (inactive) | 16.8 µM (inactive) | – | – | – | – | 1.55 µM (inactive) | – | – | – | – |
| CCCCCCCCCCCC[N+](CCCCCCCCCCCC)=C1SCCS1 | 2.98 µM (inactive) | 5.28 µM (inactive) | 9.14 µM (inactive) | 3.52 µM (inactive) | 1.7 µM (inactive) | 0.163 µM (active) | 7.76 µM (inactive) | 16 µM (inactive) | – | 2.86 µM (inactive) | 12.5 µM (inactive) | – | 3.14 µM (inactive) | – | – | 14.2 µM (inactive) | – | – | – | – |
| CC1(C)N=C(N)N=C(N)N1c1ccc(OCCCOc2ccccc2)c(Cl)c1 | 0.0336 µM (active) | 0.0715 µM (active) | 0.766 µM (active) | – | 0.076 µM (active) | 0.0322 µM (active) | 0.406 µM (active) | 0.948 µM (active) | 0.122 µM (active) | 0.514 µM (active) | 0.336 µM (active) | – | – | – | – | 0.798 µM (active) | – | – | – | – |
| COc1cc(C2C(C(=O)O)=C(CO)Oc3cc4c(cc32)OCO4)cc(OC)c1OC (stereo unspecified) | > 100 µM (inactive) | > 100 µM (inactive) | > 100 µM (inactive) | – | > 100 µM (inactive) | > 100 µM (inactive) | – | 40.7 µM (inactive) | – | > 100 µM (inactive) | – | – | – | – | – | – | – | – | – | – |
| CC12Nc3ccccc3C1=C(c1ccccc1)CC1C(=O)OC(=O)C12 (stereo unspecified) | > 100 µM (inactive) | > 100 µM (inactive) | > 100 µM (inactive) | > 100 µM (inactive) | > 100 µM (inactive) | > 100 µM (inactive) | > 100 µM (inactive) | 1.86 µM (inactive) | > 100 µM (inactive) | > 100 µM (inactive) | > 100 µM (inactive) | – | – | – | – | – | – | – | – | – |
| COC(=O)c1ccc(N/C=C(/C#N)c2ccsc2)cc1 | > 100 µM (inactive) | 12 µM (inactive) | 32.6 µM (inactive) | 11.1 µM (inactive) | 15 µM (inactive) | > 100 µM (inactive) | 9.66 µM (inactive) | 6.68 µM (inactive) | 12.9 µM (inactive) | 6.61 µM (inactive) | 15.9 µM (inactive) | – | > 100 µM (inactive) | – | – | 20.7 µM (inactive) | – | – | – | – |
| COc1ccc(C(=O)/C(Br)=C/C(=O)O)cc1 | 17.6 µM (inactive) | 29.5 µM (inactive) | 26.9 µM (inactive) | – | 18.6 µM (inactive) | 27.5 µM (inactive) | – | 35.5 µM (inactive) | 14.7 µM (inactive) | 21 µM (inactive) | – | 29.7 µM (inactive) | 25.1 µM (inactive) | 28.2 µM (inactive) | 25.8 µM (inactive) | 27.3 µM (inactive) | 17.9 µM (inactive) | 32 µM (inactive) | 20 µM (inactive) | 53.2 µM (inactive) |
| CC(=O)C(C(=O)C(=O)Nc1cc(Cl)c(Cl)cc1Cl)c1csc(N)n1 (stereo unspecified) | > 100 µM (inactive) | > 100 µM (inactive) | > 100 µM (inactive) | – | > 100 µM (inactive) | > 100 µM (inactive) | – | > 100 µM (inactive) | > 100 µM (inactive) | > 100 µM (inactive) | > 100 µM (inactive) | – | > 100 µM (inactive) | – | – | > 100 µM (inactive) | – | – | – | – |
| COc1cc(C2c3cc4c(cc3[C@@H](Nc3cnc5ccccc5c3)C3COC(=O)[C@H]23)OCO4)cc(OC)c1O (stereo partly specified) | < 0.01 µM (active) | 1.47 µM (inactive) | 0.839 µM (active) | – | 0.277 µM (active) | < 0.033 µM (active) | 1.65 µM (inactive) | 0.478 µM (active) | 0.883 µM (active) | 0.346 µM (active) | 0.168 µM (active) | – | – | – | – | 0.152 µM (active) | – | – | – | – |
| COc1cccc(C(=O)N[C@@H]2[C@H](O)[C@@H](CO)O[C@H]2n2cnc3c(N)ncnc32)c1 | > 100 µM (inactive) | – | > 100 µM (inactive) | > 100 µM (inactive) | – | > 100 µM (inactive) | > 100 µM (inactive) | > 100 µM (inactive) | > 100 µM (inactive) | > 100 µM (inactive) | > 100 µM (inactive) | > 100 µM (inactive) | > 100 µM (inactive) | > 100 µM (inactive) | > 100 µM (inactive) | > 100 µM (inactive) | > 100 µM (inactive) | > 100 µM (inactive) | > 100 µM (inactive) | > 100 µM (inactive) |
| COc1cc2c(oc(=O)c3c4occc4cc(OC)c23)c2cccc(OCc3ccccc3)c12 | > 100 µM (inactive) | > 100 µM (inactive) | > 100 µM (inactive) | 41.4 µM (inactive) | > 100 µM (inactive) | 65.8 µM (inactive) | > 100 µM (inactive) | 40 µM (inactive) | > 100 µM (inactive) | > 100 µM (inactive) | > 100 µM (inactive) | – | > 100 µM (inactive) | – | – | > 100 µM (inactive) | – | – | – | – |
| C=C1C(=O)OC2C1CC1OC2C(C)CCC/C(C)=C\CCC1(C)O (stereo unspecified) | 8.15 µM (inactive) | 29.7 µM (inactive) | 22.6 µM (inactive) | – | 11.6 µM (inactive) | 5.61 µM (inactive) | 9.75 µM (inactive) | 15.3 µM (inactive) | 19.8 µM (inactive) | 9.46 µM (inactive) | 16.5 µM (inactive) | – | – | – | – | 18.4 µM (inactive) | – | – | – | – |
| CSC1=C(C)C(/C=N/Nc2ccc([N+](=O)[O-])cc2)=C(C)N(c2ccccc2)S1(=O)=O | 5.27 µM (inactive) | – | > 100 µM (inactive) | > 100 µM (inactive) | – | 1.28 µM (inactive) | 25.4 µM (inactive) | 38.5 µM (inactive) | 26.5 µM (inactive) | 17.3 µM (inactive) | > 100 µM (inactive) | 25.9 µM (inactive) | 17.8 µM (inactive) | > 100 µM (inactive) | > 100 µM (inactive) | > 100 µM (inactive) | 20.8 µM (inactive) | > 100 µM (inactive) | > 100 µM (inactive) | 3.09 µM (inactive) |
| C[C@]12CC[C@H](O)C=C1CC[C@@H]1[C@@H]2CC[C@]2(C)C(c3ccc(=O)oc3)CC[C@]12O (stereo partly specified) | – | 0.0244 µM (active) | 0.0181 µM (active) | – | – | – | 0.0125 µM (active) | 0.0156 µM (active) | 0.0336 µM (active) | 0.015 µM (active) | 0.0125 µM (active) | – | – | – | – | 0.0375 µM (active) | – | – | – | – |
